In article PMC10257291, “Biological activities of extracts and compounds from Thai Kae-Lae (Maclura cochinchinensis (Lour.) Corner)” (BMC Complementary Medicine and Therapies, 2023):
“Also recorded” adds a separate entry of the source.

Assays:
ABTS assay = settings: compared in words
Protocol: Briefly, the sample (20 μL) was mixed with of the ABTS^•^+ solution (180 μL) that had been prepared overnight. The combined mixture was incubated at room temperature (25 °C) for 5 min before assessing the UV absorbance at 750 nm with a microplate reader (Spectrostar Nano, BMG Labtech GmbH, Ortenberg, Germany). The findings were described as Trolox equivalent antioxidant capacity (TEAC). All experiments were conducted in triplicate.

MCF-7 cells = assay: Cell migration assay (wound healing scratch); assay type: cell-based, human; settings: non-toxic dose, after 24 h of wounding
Protocol: Inhibitory effect of the extracts on cell migration of MCF-7 cells was assessed by wound healing scratch assays. First, cells were plated into 24-well plates and incubated in a CO2 incubator with humidified atmosphere of 5% CO2. After reaching the confluent monolayer forms, a longitudinal wound was created by scratching using SPLTM Scar Scratcher. Then, the non-toxic dose of each extract in complete DMEM medium was added into each well and cell migration was monitored and observed under Leica DM IL LED inverted microscopy and the images of cell-free area were captured at 0, 6, 12, and 24 h after wounding, then measured using ImageJ software. The percentage of wound width was calculated by the following formula:6 Woundwidth(%)=(Cell-[…] Where “Cell-free […]” is the cell-free area at any time point of imaging while “Cell-free area0.h” is the cell-free area at the beginning of wounding.

WT1 protein [1] = assay: WT1 protein expression by Western blot in KG-1a cells; assay type: cell-based, human; settings: IC20 value, 48 h, vs vehicle control
Protocol: (§1) Leukaemic stem cells (KG-1a) and leukaemic cells (EoL-1 and K562) were used as cell models which overexpressed WT1 protein expression. Cells were treated with crude fractional extracts and active compounds at a 20% growth inhibition (IC20 value) of each extract. Following 48-h of incubation, cells were washed. The whole protein was extracted using RIPA buffer. The protein concentration was determined by the Pierce™ BCA Protein Assay Kit (ThermoFisher Scientific, IL, USA). Extracted protein sample at 30 − 50 μg was loaded to 12% SDS-PAGE and then transferred to PVDF membranes. The method was done as previously described. The specific protein bands were determined by Luminata™ Forte Western HRP substrate (Merck, Darmstadt, Germany) and exposed to X-ray film (Sakura, Japan). Quantity One 1-D Analysis software (Bio-Rad, USA) was used to quantify densitometry. The density values of WT1 bands were normalized to GAPDH bands.

DPPH assay = settings: compared in words
Protocol: The DPPH^• scavenging activity of crude fractional extracts and their biological active compounds were investigated using DPPH assay. Briefly, the sample (20 μL) was mixed with 167 μM DPPH solution (180 μL). The combined mixture was incubated at room temperature (25 °C) in the dark for 30 min before assessing the UV absorbance at 520 nm with a microplate reader (Beckman CoulterDTX880, Fullerton, CA, USA). The DPPH^• scavenging activity was presented in terms of the percentage of inhibition that was calculated using the following equation: 2 %DPPH^·inhibition=A-B/A×100 A is the UV absorbance of the mixture in the absence of a sample solution, and B is the UV absorbance of the mixture in the […] of a sample solution. L-ascorbic acid served as a positive control. All experiments were conducted in triplicate.

FRAP assay = settings: compared in words
Protocol: Briefly, sample (20 μL) was mixed with FRAP solution (180 μL). The combined mixture was incubated at room temperature (25 °C) in the dark for 5 min before assessing the UV absorbance was measured at 595 nm with a microplate reader (Beckman CoulterDTX880, Fullerton, CA, USA). The findings were described as equivalent concentration (EC1). L-ascorbic acid served as a positive control. All experiments were conducted in triplicate.

EoL-1 cells = assay: Total cell number by trypan blue exclusion, EoL-1 cells; assay type: cell-based, human; settings: IC20 value, 48 h, vs vehicle control
Protocol: (§2) According to the principle of trypan blue exclusion, viable cells with intact membranes can exclude trypan blue dye, while dead cells with compromised membranes are stained by the trypan blue dye solution. A cell suspension and trypan blue dye solution (0.2%) were mixed, and viable and dead cells were counted under microscope using a hemacytometer. Then, the percentage of viable cells was calculated. KG-1a, EoL-1 and K562 cells were cultured with crude fractional extracts and active pure compounds at various concentrations (10 − 20% growth inhibition; IC10 − IC20 values) of each extract for 48 h, at a 20% growth inhibition (IC20 value) of each extract for 24 and 48 h. Following incubation, cells were harvested, and the total cell number was counted using trypan blue exclusion method. Three independent experiments were plotted as a dose–response curve and compared with the vehicle control. Meanwhile, the total cell number of each cell line after fractional extract and pure compound treatments at 24 and 48 h were calculated and plotted as a time-response curve. Slopes from each graph were considered as the rate of cell proliferation.

NO = assay: Nitric oxide measurement in LPS-stimulated RAW 264.7 cells; assay type: cell-based, mouse; settings: sample at IC20 value; vs dexamethasone; LPS 1 μg/mL
Protocol: Mouse monocyte macrophage RAW 264.7 cells (American Type Culture Collection, ATCCTIB-71) were stimulated with lipopolysaccharide (LPS) or phytohemagglutinin (PHA). The LPS treated RAW 264.7 cells served as a vehicle control, of which the NO production, and the secreted cytokines were defined as 100%, whereas a negative control was non-treated RAW 264.7 cells. Dexamethasone (an anti-inflammatory drug) was used as a positive control.
Briefly, 1 × 10^5 cells/well in DMEM were seeded and incubated for 24 h in a CO2 incubator set at 37 °C and 5% CO2/95% humidified air. Then cells were treated with Kae-Lae extracts or purified compounds. Following 2-h of incubation in a CO2 incubator, LPS was added to make a final concentration of 1 μg/mL. After 24 h in a CO2 incubator, the media were removed and centrifuged at 13,500 × g for 10 min. The supernatant was analysed for the level of NO using Total Nitric Oxide Assay kit, according to the manufacturer’s protocol (Invitrogen™, ThermoFisher Scientific, MA, USA). The optical density was measured at 540 nm using a multimode detector (Beckman CoulterDTX880, Fullerton, CA, USA).
NO inhibitions were calculated using the following equation:
3 %NOinhibition=A-B/A×100
A is the optical density of the mixture without the sample, while B is the optical density of the mixture with the sample. Dexamethasone was used as a positive control. […]

KG-1a cells = assay: Rate of proliferation, KG-1a cells; assay type: cell-based, human; settings: for decrease of rate of proliferation, KG-1a cells: IC20 value, 24 and 48 h (time-response), vs control; for rate of cell proliferation, KG-1a cells (in words): concentrations IC10 − IC20 values, 48 h
Protocol: as §2

WT1 protein [2] = assay: WT1 protein expression by Western blot in K562 cells; assay type: cell-based, human; settings: IC20 value, 48 h, vs vehicle control
Protocol: as §1

SMILES | TEAC (ABTS antioxidant activity) (ABTS assay) | wound width (MCF-7 cells) [%] | suppression of WT1 protein expression in KG-1a cells (WT1 protein [1]) [%] | DPPH• inhibition (DPPH assay) | EC1 (FRAP antioxidant activity) (FRAP assay) | decrease of total cell number, EoL-1 cells (EoL-1 cells) [%] | NO inhibition (NO) | decrease of rate of proliferation, KG-1a cells (KG-1a cells) | rate of cell proliferation, KG-1a cells (in words) (KG-1a cells) | suppression of WT1 protein expression in K562 cells (WT1 protein [2]) [%] | suppression of WT1 protein expression in KG-1a cells (WT1 protein [1]; listed as resveratrol) [%]
O=c1c(O)c(-c2ccc(O)cc2O)oc2cc(O)cc(O)c12 [Morin, 2’,3,4’,5,7-pentahydroxyflavonone] | comparable TEAC and EC1 values with those of ascorbic acid | 60.5 ± 3.8 | 32.89 ± 8.76 | significantly more potent than ascorbic acid | comparable TEAC and EC1 values with those of ascorbic acid | – | – | – | – | – | –
O=c1c(O)c(-c2ccc(O)c(O)c2)oc2cc(O)cc(O)c12 [Quercetin, quercetin] | comparable TEAC and EC1 values with those of ascorbic acid | – | – | significantly more potent than ascorbic acid | comparable TEAC and EC1 values with those of ascorbic acid | 23.25 | potent inhibitory activities against NO; also recorded: significantly more potent inhibition of IL-2, TNF-α, and NO than dexamethasone | significantly decreasing rates of proliferation | significantly decreasing rate of cell proliferation | – | –
Oc1ccc(/C=C/c2cc(O)cc(O)c2)cc1 [Resveratrol, resveratrol] | – | 32.8 ± 0.7 | – | – | – | 74.14 | – | 86.02% | significantly decreasing rate of cell proliferation | 53.78 ± 4.28 | 60.27 ± 11.44
